{"source": "patent US11986532B2", "about": "(Arvinas Operations, Inc., priority 2021, dated 2024)", "target": "T1, BCL6 (Homo sapiens, UniProt P41182)", "T1 construct": "endogenous in cells; host or cells: T47D breast cancer epithelial cells", "test": "Immunofluorescence protocol for high content imaging of BCL6 (degradation) in T47D cells, 3 days compound treatment", "type": "cell-based", "conditions": "for Dmax: T47D, read-out: Mean Dmax (%)** category; for DC50: read-out: Mean DC50 (nM)* category", "procedure,_shortened": "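T47D, RPMI1640/10% FBS; cpd 11-pt 3-fold, top 0.1 or 1 μM final; 3 d, 37° C. Fix 4% PFA, perm 0.1% Triton, block 3% BSA; anti-BCL6 1:300 o/n 4° C; Alexa-488 2°, CellMask-647, Hoechst. Imaged 10×, 4 fields/well.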"}
{"smiles": "CNC(=O)COc1cc2cc(Nc3nc(N4CCC(F)(CN5CC(N6CCC(c7ccc8c(c7F)CN(C7CCC(=O)NC7=O)C8=O)CC6)C5)CC4)ncc3Cl)ccc2n(C(C)C)c1=O", "note": "(stereo not drawn) [Compound 285, 2-({6-[(5-chloro-2-{4-[(3-{4-[2-(2,6-dioxopiperidin-3-yl)-4-fluoro-1-oxo-2,3-dihydro-1H-isoindol-5-yl]piperidin-1-yl}azetidin-1-yl)methyl]-4-fluoropiperidin-1-yl}pyrimidin-4-yl)amino]-2-oxo-1-(propan-2-yl)-1,2-dihydroquinolin-3-yl}oxy)-N-methylacetamide]", "values": [{"measurement": "Dmax", "result": "≥ 70", "unit": "%"}, {"measurement": "DC50", "result": "< 10", "unit": "nM"}]}
{"smiles": "CNC(=O)COc1cc2cc(Nc3nc(N4CCC(O[C@H]5C[C@H](N6CCN(CC7CCN(c8ccc9c(c8F)CN(C8CCC(=O)NC8=O)C9=O)CC7)CC6)C5)CC4)ncc3Cl)ccc2n(C(C)C)c1=O", "note": "(stereo partly drawn) [Compound 286, 2-({6-[(5-chloro-2-{4-[(1r,3r)-3-[4-({1-[2-(2,6-dioxopiperidin-3-yl)-4-fluoro-1-oxo-2,3-dihydro-1H-isoindol-5-yl]piperidin-4-yl}methyl)piperazin-1-yl]cyclobutoxy]piperidin-1-yl}pyrimidin-4-yl)amino]-2-oxo-1-(propan-2-yl)-1,2-dihydroquinolin-3-yl}oxy)-N-methylacetamide]", "values": [{"measurement": "Dmax", "result": "50 to 70", "unit": "%"}, {"measurement": "DC50", "result": "< 10", "unit": "nM"}]}
{"smiles": "CC[C@@H]1CN([C@H]2C[C@H](OC3CCN(c4ncc(Cl)c(Nc5ccc6c(c5)cc(OCC(=O)NC)c(=O)n6C(C)C)n4)CC3)C2)CCN1c1ccc2c(c1C)C(=O)N(C1CCC(=O)NC1=O)C2=O", "note": "(stereo partly drawn) [Compound 287, 2-({6-[(5-chloro-2-{4-[(1r,3r)-3-[(3R)-4-[2-(2,6-dioxopiperidin-3-yl)-4-methyl-1,3-dioxo-2,3-dihydro-1H-isoindol-5-yl]-3-ethylpiperazin-1-yl]cyclobutoxy]piperidin-1-yl}pyrimidin-4-yl)amino]-2-oxo-1-(propan-2-yl)-1,2-dihydroquinolin-3-yl}oxy)-N-methylacetamide]", "values": [{"measurement": "Dmax", "result": "≥ 70", "unit": "%"}, {"measurement": "DC50", "result": "< 10", "unit": "nM"}]}
{"smiles": "CNC(=O)COc1cc2cc(Nc3nc(N4CCC(O[C@H]5C[C@H](N6CCC(c7ccc8c(c7F)[C@@H](C)N([C@H]7CCC(=O)NC7=O)C8=O)CC6)C5)CC4)ncc3Cl)ccc2n(C(C)C)c1=O", "note": "[Compound 288, 2-({6-[(5-chloro-2-{4-[(1r,3r)-3-{4-[(3R)-2-[(3S)-2,6-dioxopiperidin-3-yl]-4-fluoro-3-methyl-1-oxo-2,3-dihydro-1H-isoindol-5-yl]piperidin-1-yl}cyclobutoxy]piperidin-1-yl}pyrimidin-4-yl)amino]-2-oxo-1-(propan-2-yl)-1,2-dihydroquinolin-3-yl}oxy)-N-methylacetamide]", "values": [{"measurement": "Dmax", "result": "< 50", "unit": "%"}, {"measurement": "DC50", "result": "10 to 50", "unit": "nM"}]}
{"smiles": "CNC(=O)COc1cc2cc(Nc3nc(N4CCC(O[C@H]5C[C@H](N6CCC(c7ccc8c(c7F)[C@@H](C)N(C7CCC(=O)NC7=O)C8=O)CC6)C5)CC4)ncc3Cl)ccc2n(C(C)C)c1=O", "note": "(stereo partly drawn) [Compound 289, 2-({6-[(5-chloro-2-{4-[(1r,3r)-3-{4-[(3R)-2-(2,6-dioxopiperidin-3-yl)-4-fluoro-3-methyl-1-oxo-2,3-dihydro-1H-isoindol-5-yl]piperidin-1-yl}cyclobutoxy]piperidin-1-yl}pyrimidin-4-yl)amino]-2-oxo-1-(propan-2-yl)-1,2-dihydroquinolin-3-yl}oxy)-N-methylacetamide]", "values": [{"measurement": "Dmax", "result": "≥ 70", "unit": "%"}, {"measurement": "DC50", "result": "< 10", "unit": "nM"}]}
{"smiles": "CNC(=O)COc1cc2cc(Nc3nc(N4CCC(O[C@H]5C[C@H](N6CCC(c7ccc8c(c7F)[C@H](C)N([C@H]7CCC(=O)NC7=O)C8=O)CC6)C5)CC4)ncc3Cl)ccc2n(C(C)C)c1=O", "note": "[Compound 290, 2-({6-[(5-chloro-2-{4-[(1r,3r)-3-{4-[(3S)-2-[(3S)-2,6-dioxopiperidin-3-yl]-4-fluoro-3-methyl-1-oxo-2,3-dihydro-1H-isoindol-5-yl]piperidin-1-yl}cyclobutoxy]piperidin-1-yl}pyrimidin-4-yl)amino]-2-oxo-1-(propan-2-yl)-1,2-dihydroquinolin-3-yl}oxy)-N-methylacetamide]", "values": [{"measurement": "Dmax", "result": "≥ 70", "unit": "%"}, {"measurement": "DC50", "result": "< 10", "unit": "nM"}]}
{"smiles": "CNC(=O)COc1cc2cc(Nc3nc(N4CCC(O[C@H]5C[C@H](N6CCC(c7ccc8c(c7F)[C@H](C)N(C7CCC(=O)NC7=O)C8=O)CC6)C5)CC4)ncc3Cl)ccc2n(C(C)C)c1=O", "note": "(stereo partly drawn) [Compound 291, 2-({6-[(5-chloro-2-{4-[(1r,3r)-3-{4-[(3S)-2-(2,6-dioxopiperidin-3-yl)-4-fluoro-3-methyl-1-oxo-2,3-dihydro-1H-isoindol-5-yl]piperidin-1-yl}cyclobutoxy]piperidin-1-yl}pyrimidin-4-yl)amino]-2-oxo-1-(propan-2-yl)-1,2-dihydroquinolin-3-yl}oxy)-N-methylacetamide]", "values": [{"measurement": "Dmax", "result": "≥ 70", "unit": "%"}, {"measurement": "DC50", "result": "< 10", "unit": "nM"}]}
{"smiles": "CNC(=O)COc1cc2cc(Nc3nc(N4CCC(O[C@H]5C[C@H](N6CC[C@@H](c7ccc8c(c7F)CN([C@H]7CCC(=O)NC7=O)C8=O)C[C@@H]6C)C5)CC4)ncc3Cl)ccc2n(C(C)C)c1=O", "note": "[Compound 292, 2-({6-[(5-chloro-2-{4-[(1r,3r)-3-[(2S,4R)-4-{2-[(3S)-2,6-dioxopiperidin-3-yl]-4-fluoro-1-oxo-2,3-dihydro-1H-isoindol-5-yl}-2-methylpiperidin-1-yl]cyclobutoxy]piperidin-1-yl}pyrimidin-4-yl)amino]-2-oxo-1-(propan-2-yl)-1,2-dihydroquinolin-3-yl}oxy)-N-methylacetamide]", "values": [{"measurement": "Dmax", "result": "≥ 70", "unit": "%"}, {"measurement": "DC50", "result": "< 10", "unit": "nM"}]}
{"smiles": "CNC(=O)COc1cc2cc(Nc3nc(N4CCC(O[C@H]5C[C@H](N6CC[C@H](c7ccc8c(c7F)CN([C@H]7CCC(=O)NC7=O)C8=O)C[C@@H]6C)C5)CC4)ncc3Cl)ccc2n(C(C)C)c1=O", "note": "[Compound 293, 2-({6-[(5-chloro-2-{4-[(1r,3r)-3-[(2S,4S)-4-{2-[(3S)-2,6-dioxopiperidin-3-yl]-4-fluoro-1-oxo-2,3-dihydro-1H-isoindol-5-yl}-2-methylpiperidin-1-yl]cyclobutoxy]piperidin-1-yl}pyrimidin-4-yl)amino]-2-oxo-1-(propan-2-yl)-1,2-dihydroquinolin-3-yl}oxy)-N-methylacetamide]", "values": [{"measurement": "Dmax", "result": "50 to 70", "unit": "%"}, {"measurement": "DC50", "result": "< 10", "unit": "nM"}]}
{"smiles": "CNC(=O)COc1cc2cc(Nc3nc(N4CCC(O[C@H]5C[C@H](N6CC[C@@H](c7ccc8c(c7F)CN([C@H]7CCC(=O)NC7=O)C8=O)C[C@H]6C)C5)CC4)ncc3Cl)ccc2n(C(C)C)c1=O", "note": "[Compound 294, 2-({6-[(5-chloro-2-{4-[(1r,3r)-3-[(2R,4R)-4-{2-[(3S)-2,6-dioxopiperidin-3-yl]-4-fluoro-1-oxo-2,3-dihydro-1H-isoindol-5-yl}-2-methylpiperidin-1-yl]cyclobutoxy]piperidin-1-yl}pyrimidin-4-yl)amino]-2-oxo-1-(propan-2-yl)-1,2-dihydroquinolin-3-yl}oxy)-N-methylacetamide]", "values": [{"measurement": "Dmax", "result": "≥ 70", "unit": "%"}, {"measurement": "DC50", "result": "< 10", "unit": "nM"}]}
{"smiles": "CNC(=O)COc1cc2cc(Nc3nc(N4CCC(O[C@H]5C[C@H](N6CC[C@H](c7ccc8c(c7F)CN([C@H]7CCC(=O)NC7=O)C8=O)C[C@H]6C)C5)CC4)ncc3Cl)ccc2n(C(C)C)c1=O", "note": "[Compound 295, 2-({6-[(5-chloro-2-{4-[(1r,3r)-3-[(2R,4S)-4-{2-[(3S)-2,6-dioxopiperidin-3-yl]-4-fluoro-1-oxo-2,3-dihydro-1H-isoindol-5-yl}-2-methylpiperidin-1-yl]cyclobutoxy]piperidin-1-yl}pyrimidin-4-yl)amino]-2-oxo-1-(propan-2-yl)-1,2-dihydroquinolin-3-yl}oxy)-N-methylacetamide]", "values": [{"measurement": "Dmax", "result": "≥ 70", "unit": "%"}, {"measurement": "DC50", "result": "< 10", "unit": "nM"}]}
{"smiles": "CNC(=O)COc1cc2cc(Nc3nc(N4CCN(CC5CCN(c6c(F)ccc7c6CN(C6CCC(=O)NC6=O)C7=O)CC5)CC4)ncc3Cl)ccc2n(C(C)C)c1=O", "note": "(stereo not drawn) [Compound 297, 2-{[6-({5-chloro-2-[4-({1-[2-(2,6-dioxopiperidin-3-yl)-5-fluoro-1-oxo-2,3-dihydro-1H-isoindol-4-yl]piperidin-4-yl}methyl)piperazin-1-yl]pyrimidin-4-yl}amino)-2-oxo-1-(propan-2-yl)-1,2-dihydroquinolin-3-yl]oxy}-N-methylacetamide]", "values": [{"measurement": "Dmax", "result": "50 to 70", "unit": "%"}, {"measurement": "DC50", "result": "< 10", "unit": "nM"}]}
{"smiles": "CNC(=O)COc1cc2cc(Nc3nc(N4CCC(OC5CCC6(CC5)CN(c5c(F)ccc7c5CN(C5CCC(=O)NC5=O)C7=O)C6)CC4)ncc3Cl)ccc2n(C(C)C)c1=O", "note": "(stereo not drawn) [Compound 298, 2-{[6-({5-chloro-2-[4-({2-[2-(2,6-dioxopiperidin-3-yl)-5-fluoro-1-oxo-2,3-dihydro-1H-isoindol-4-yl]-2-azaspiro[3.5]nonan-7-yl}oxy)piperidin-1-yl]pyrimidin-4-yl}amino)-2-oxo-1-(propan-2-yl)-1,2-dihydroquinolin-3-yl]oxy}-N-methylacetamide]", "values": [{"measurement": "Dmax", "result": "50 to 70", "unit": "%"}, {"measurement": "DC50", "result": "< 10", "unit": "nM"}]}
{"smiles": "CNC(=O)COc1cc2cc(Nc3nc(N4CCC(OC5CCC6(CC5)CN(c5cc(F)cc7c5CN(C5CCC(=O)NC5=O)C7=O)C6)CC4)ncc3Cl)ccc2n(C(C)C)c1=O", "note": "(stereo not drawn) [Compound 299, 2-{[6-({5-chloro-2-[4-({2-[2-(2,6-dioxopiperidin-3-yl)-6-fluoro-1-oxo-2,3-dihydro-1H-isoindol-4-yl]-2-azaspiro[3.5]nonan-7-yl}oxy)piperidin-1-yl]pyrimidin-4-yl}amino)-2-oxo-1-(propan-2-yl)-1,2-dihydroquinolin-3-yl]oxy}-N-methylacetamide]", "values": [{"measurement": "Dmax", "result": "50 to 70", "unit": "%"}, {"measurement": "DC50", "result": "< 10", "unit": "nM"}]}
{"smiles": "CNC(=O)COc1cc2cc(Nc3nc(N4CCC(OC5CCC6(CC5)CN(c5c(OC)ccc7c5CN(C5CCC(=O)NC5=O)C7=O)C6)CC4)ncc3Cl)ccc2n(C(C)C)c1=O", "note": "(stereo not drawn) [Compound 300, 2-{[6-({5-chloro-2-[4-({2-[2-(2,6-dioxopiperidin-3-yl)-5-methoxy-1-oxo-2,3-dihydro-1H-isoindol-4-yl]-2-azaspiro[3.5]nonan-7-yl}oxy)piperidin-1-yl]pyrimidin-4-yl}amino)-2-oxo-1-(propan-2-yl)-1,2-dihydroquinolin-3-yl]oxy}-N-methylacetamide]", "values": [{"measurement": "Dmax", "result": "50 to 70", "unit": "%"}, {"measurement": "DC50", "result": "< 10", "unit": "nM"}]}
